Test results taken from article PMC5431190, “Investigation of cationicity and structure of pseudin-2 analogues for enhanced bacterial selectivity and anti-inflammatory activity” (Scientific Reports, 2017).
Values after ≈ are worked out from the molar mass of the structure shown. Residues, ends and D or L forms follow the SMILES beside them.

B1: Ps-K18 (peptide)
peptide: GLNALKKVFQGIHEAIKKINNHVQ
notes: source: synthetic peptide (solid-phase, Fmoc; reversed-phase HPLC, purity >95%)
B2: Ps-K14-K18 (peptide)
peptide: GLNALKKVFQGIHKAIKKINNHVQ
notes: as for B1
B3: Pseudin-2 (peptide)
peptide: GLNALKKVFQGIHEAIKLINNHVQ
notes: as for B1

How the values were obtained:
[1] = system: mouse bone marrow-derived dendritic cells; details: 50 μM peptide, MTT, 18 h at 37 °C
[2] = system: S. aureus 3126(R) (MRSA 3126); format: cell-based, Staphylococcus aureus; details: multidrug-resistant strain; 1% peptone media, 16 h at 37 °C
[3] = system: mouse macrophage RAW264.7 cells; details: 50 μM peptide, MTT, 18 h at 37 °C
[4] = system: S. aureus 3108(R) (MRSA 3108); format: cell-based, Staphylococcus aureus; details: multidrug-resistant strain; 1% peptone media, 16 h at 37 °C
[5] = system: Pseudomonas aeruginosa CCARM 2002 (MDRPA 2002); format: cell-based; details: multidrug-resistant strain; 1% peptone media, 16 h at 37 °C
Description: (§1) Four Gram-negative bacteria species (Escherichia coli KCTC 1682, Acinetobacter baumannii KCTC 2508, Pseudomonas aeruginosa KCTC 1637 and Salmonella typhimurium KCTC 1926) and three Gram-positive bacteria species (Staphylococcus aureus KCTC 1621, Bacillus subtilis KCTC 3028 and Staphylococcus epidermidis KCTC 1917) were procured from the Korean Collection for Type Cultures (KCTC). Multi-drug-resistant Gram-negative bacteria (Salmonella typhimurium CCARM 8003 and 8007, Escherichia coli CCARM 1229 and 1238, Pseudomonas aeruginosa CCARM 2002 and 2095 and Acinetobacter baumannii CCARM 12035 and 12036) were obtained from the Culture Collection of Antibiotic-Resistant Microbes (CCARM). To determine MICs, bacteria were cultured in Luria-Bertani (LB) medium for overnight at 37 °C. An aliquot of the culture was incubated in 1% peptone media at 37 °C until mid-log phase. 100 μl of serial 2-fold diluted peptides were treated in 96 well plates and added to 100 μl of 2 × 10^6 CFU/ml bacterial suspensions in 1% peptone media for 16 h at 37 °C.

[6] = system: Escherichia coli CCARM 1229 (MDREC 1229); format: cell-based; details: multidrug-resistant strain; 1% peptone media, 16 h at 37 °C
Description: as §1

[7] = system: Salmonella typhimurium KCTC 1926; format: cell-based; details: KCTC 1926, 16 h
Description: as §1

[8] = system: Staphylococcus epidermidis KCTC 1917; format: cell-based; details: KCTC 1917, 16 h
Description: as §1

[9] = system: Gram-positive bacteria (S. aureus, B. subtilis, S. epidermidis); format: cell-based; details: 16 h
Description: as §1

[10] = system: Gram-negative bacteria (E. coli, A. baumannii, P. aeruginosa, S. typhimurium); format: cell-based; details: 16 h
Description: as §1

[11] = system: Salmonella typhimurium CCARM 8003 (MDRST 8003); format: cell-based; details: multidrug-resistant strain; 1% peptone media, 16 h at 37 °C
Description: as §1

[12] = system: Acinetobacter baumannii CCARM 12036 (MDRAB 12036); format: cell-based; details: multidrug-resistant strain; 1% peptone media, 16 h at 37 °C
Description: as §1

[13] = system: Escherichia coli CCARM 1238 (MDREC 1238); format: cell-based; details: multidrug-resistant strain; 1% peptone media, 16 h at 37 °C
Description: as §1

[14] = system: Escherichia coli KCTC 1682; format: cell-based; details: KCTC 1682, 16 h
Description: as §1

[15] = system: Salmonella typhimurium CCARM 8007 (MDRST 8007); format: cell-based; details: multidrug-resistant strain; 1% peptone media, 16 h at 37 °C
Description: as §1

[16] = system: Bacillus subtilis KCTC 3028; format: cell-based; details: KCTC 3028, 16 h
Description: as §1

[17] = system: Pseudomonas aeruginosa CCARM 2095 (MDRPA 2095); format: cell-based; details: multidrug-resistant strain; 1% peptone media, 16 h at 37 °C
Description: as §1

[18] = system: Staphylococcus aureus KCTC 1621; format: cell-based; details: KCTC 1621, 16 h
Description: as §1

[19] = system: Pseudomonas aeruginosa KCTC 1637; format: cell-based; details: KCTC 1637, 16 h
Description: as §1

[20] = system: Acinetobacter baumannii CCARM 12035 (MDRAB 12035); format: cell-based; details: multidrug-resistant strain; 1% peptone media, 16 h at 37 °C
Description: as §1

[21] = system: Acinetobacter baumannii KCTC 2508; format: cell-based; details: KCTC 2508, 16 h
Description: as §1

[22] = system: human red blood cells (hRBCs); assay: Haemolytic activity; format: cell-based; details: red cells of human, 1 h
Method: Peptide-induced lysis of human red blood cells (hRBCs) was determined as follows. Fresh hRBCs were washed 2–3 times with phosphate-buffered saline (PBS) by centrifugation for 5 min at 2500 rpm at 4 °C. Peptides in PBS were incubated with 4% (v/v) hRBCs for 1 h at 37 °C. Samples were then centrifuged for 5 min at 1000 × g. The absorbance of the supernatant at 405 nm was used as a measure of haemolysis. As a positive control, 100% haemolysis was obtained by treating hRBCs with 0.1% Triton X-100.

[23] = system: S. aureus 3089(R) (MRSA 3089); format: cell-based, Staphylococcus aureus; details: multidrug-resistant strain; 1% peptone media, 16 h at 37 °C
[24] = LPS neutralization (LAL assay); format: biochemical
Method: LPS neutralization by the peptides were measured using LAL-QCL-1000^TM (Lonza, USA) kit using a modified protocol as described previously. The interaction between each peptide and FITC-LPS was monitored according to the change in fluorescence intensity (excitation = 480 nm, emission = 515 nm). Peptides and 0.5 μg/ml FITC-LPS were prepared in 10 mM phosphate buffer (pH 6.0). The binding between rhTLR4 (from R&D systems, Minneapolis, USA) or rhMD2 (R&D systems, Minneapolis, USA) and peptides was determined using the BLItz system (ForteBio, Menlo Park, CA)[53]. A Ni-NTA sensor was used to detect rhTLR4 and rhMD2 binding. Before the binding assay, the biosensor was hydrated for 10 min in PBS. An initial baseline of 15 s, loading for 60 s, baseline for 30 s, association for 60 s and dissociation for 60 s were used for measurement.

[25] = target: T1, rhTLR4 (recombinant human Toll-like receptor 4) (human, UniProt O00206 24-631); assay: BLI; BLItz system (ForteBio); rhTLR4 loaded on a Ni-NTA sensor, various amounts of peptide applied; biosensor hydrated 10 min in PBS; baseline 15 s, loading 60 s, baseline 30 s, association 60 s, dissociation 60 s; details: both partners purified
T1 construct: Toll-like receptor 4, recombinant human (rhTLR4), bought; No catalogue number is printed; source: bought: R&D systems, Minneapolis, USA
T1 sequence (O00206 24-631): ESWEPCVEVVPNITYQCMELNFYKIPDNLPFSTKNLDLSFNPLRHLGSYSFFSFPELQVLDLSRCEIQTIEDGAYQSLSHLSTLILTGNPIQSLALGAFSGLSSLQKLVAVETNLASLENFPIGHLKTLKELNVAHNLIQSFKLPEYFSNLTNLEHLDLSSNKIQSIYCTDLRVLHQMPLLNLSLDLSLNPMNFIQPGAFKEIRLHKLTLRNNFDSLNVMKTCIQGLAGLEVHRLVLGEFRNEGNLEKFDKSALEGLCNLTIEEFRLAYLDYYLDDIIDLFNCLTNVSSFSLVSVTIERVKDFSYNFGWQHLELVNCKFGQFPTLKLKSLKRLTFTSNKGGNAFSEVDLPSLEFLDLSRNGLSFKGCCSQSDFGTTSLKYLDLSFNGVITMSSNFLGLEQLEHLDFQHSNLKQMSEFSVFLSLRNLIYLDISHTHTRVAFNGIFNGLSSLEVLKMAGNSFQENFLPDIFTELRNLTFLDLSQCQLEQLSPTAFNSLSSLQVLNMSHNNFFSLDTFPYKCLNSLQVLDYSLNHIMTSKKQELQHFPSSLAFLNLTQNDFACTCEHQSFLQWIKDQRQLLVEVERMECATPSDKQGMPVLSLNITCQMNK

Molecule	MIC, MRSA 3126 [2]	MIC, MRSA 3108 [4]	MIC, MDRPA 2002 [5]	MIC, MDREC 1229 [6]	MIC, S. typhimurium [7]	MIC, S. epidermidis [8]	Average MIC, Gram-positive [9]	Average MIC, Gram-negative [10]	MIC, MDRST 8003 [11]	MIC, MDRAB 12036 [12]	MIC, MDREC 1238 [13]	MIC, E. coli [14]	MIC, MDRST 8007 [15]	MIC, B. subtilis [16]	MIC, MDRPA 2095 [17]	MIC, S. aureus [18]	MIC, P. aeruginosa [19]	MIC, MDRAB 12035 [20]	MIC, A. baumannii [21]	MHC (minimal peptide concentration that produces haemolysis) [22]	further results
CC[C@H](C)[C@H](NC(=O)CNC(=O)[C@H](CCC(N)=O)NC(=O)[C@H](Cc1ccccc1)NC(=O)[C@@H](NC(=O)[C@H](CCCCN)NC(=O)[C@H](CCCCN)NC(=O)[C@H](CC(C)C)NC(=O)[C@H](C)NC(=O)[C@H](CC(N)=O)NC(=O)[C@H](CC(C)C)NC(=O)CN)C(C)C)C(=O)N[C@@H](Cc1c[nH]cn1)C(=O)N[C@@H](CCC(=O)O)C(=O)N[C@@H](C)C(=O)N[C@H](C(=O)N[C@@H](CCCCN)C(=O)N[C@@H](CC(C)C)C(=O)N[C@H](C(=O)N[C@@H](CC(N)=O)C(=O)N[C@@H](CC(N)=O)C(=O)N[C@@H](Cc1c[nH]cn1)C(=O)N[C@H](C(=O)N[C@@H](CCC(N)=O)C(=O)O)C(C)C)[C@@H](C)CC)[C@@H](C)CC [Ps, Pseudin-2] (H-GLNALKKVFQGIHEAIKLINNHVQ-OH)	4 µM (≈ 10.7 µg/mL)	4 µM (≈ 10.7 µg/mL)	2 µM (≈ 5.37 µg/mL)	2 µM (≈ 5.37 µg/mL)	2 µM (≈ 5.37 µg/mL)	4 µM (≈ 10.7 µg/mL)	4 µM	1.5 µM	4 µM (≈ 10.7 µg/mL)	2 µM (≈ 5.37 µg/mL)	1 µM (≈ 2.69 µg/mL)	1 µM (≈ 2.69 µg/mL)	2 µM (≈ 5.37 µg/mL)	4 µM (≈ 10.7 µg/mL)	2 µM (≈ 5.37 µg/mL)	4 µM (≈ 10.7 µg/mL)	2 µM (≈ 5.37 µg/mL)	1 µM (≈ 2.69 µg/mL)	1 µM (≈ 2.69 µg/mL)	25 µM	survival of dendritic cells [1]: 44%; survival of RAW264.7 cells [3]: 56%; haemolysis at 100 μM [22]: approximately 23%; MIC, MRSA 3089 [23]: 4 µM (≈ 10.7 µg/mL)
CC[C@H](C)[C@H](NC(=O)CNC(=O)[C@H](CCC(N)=O)NC(=O)[C@H](Cc1ccccc1)NC(=O)[C@@H](NC(=O)[C@H](CCCCN)NC(=O)[C@H](CCCCN)NC(=O)[C@H](CC(C)C)NC(=O)[C@H](C)NC(=O)[C@H](CC(N)=O)NC(=O)[C@H](CC(C)C)NC(=O)CN)C(C)C)C(=O)N[C@@H](Cc1c[nH]cn1)C(=O)N[C@@H](CCC(=O)O)C(=O)N[C@@H](C)C(=O)N[C@H](C(=O)N[C@@H](CCCCN)C(=O)N[C@@H](CCCCN)C(=O)N[C@H](C(=O)N[C@@H](CC(N)=O)C(=O)N[C@@H](CC(N)=O)C(=O)N[C@@H](Cc1c[nH]cn1)C(=O)N[C@H](C(=O)N[C@@H](CCC(N)=O)C(=O)O)C(C)C)[C@@H](C)CC)[C@@H](C)CC [Ps-K18] (H-GLNALKKVFQGIHEAIKKINNHVQ-OH)	16 µM (≈ 43.2 µg/mL)	32 µM (≈ 86.4 µg/mL)	2 µM (≈ 5.4 µg/mL)	4 µM (≈ 10.8 µg/mL)	4 µM (≈ 10.8 µg/mL)	8 µM (≈ 21.6 µg/mL)	10.67 µM	2.5 µM	4 µM (≈ 10.8 µg/mL)	4 µM (≈ 10.8 µg/mL)	2 µM (≈ 5.4 µg/mL)	2 µM (≈ 5.4 µg/mL)	4 µM (≈ 10.8 µg/mL)	8 µM (≈ 21.6 µg/mL)	2 µM (≈ 5.4 µg/mL)	16 µM (≈ 43.2 µg/mL)	2 µM (≈ 5.4 µg/mL)	4 µM (≈ 10.8 µg/mL)	2 µM (≈ 5.4 µg/mL)	100 µM	haemolysis at 100 μM [22]: 0.5%; MIC, MRSA 3089 [23]: 16 µM (≈ 43.2 µg/mL)
CC[C@H](C)[C@H](NC(=O)[C@H](C)NC(=O)[C@H](CCC(=O)O)NC(=O)[C@H](Cc1c[nH]cn1)NC(=O)[C@@H](NC(=O)[C@@H]1CCCN1C(=O)[C@H](CCC(N)=O)NC(=O)[C@H](Cc1ccccc1)NC(=O)[C@@H](NC(=O)[C@H](CCCCN)NC(=O)[C@H](CCCCN)NC(=O)[C@H](CC(C)C)NC(=O)[C@H](C)NC(=O)[C@H](CC(N)=O)NC(=O)[C@H](CC(C)C)NC(=O)CN)C(C)C)[C@@H](C)CC)C(=O)N[C@@H](CCCCN)C(=O)N[C@@H](CC(C)C)C(=O)N[C@H](C(=O)N[C@@H](CC(N)=O)C(=O)N[C@@H](CC(N)=O)C(=O)N[C@@H](Cc1c[nH]cn1)C(=O)N[C@H](C(=O)N[C@@H](CCC(N)=O)C(=O)O)C(C)C)[C@@H](C)CC [Ps-P] (H-GLNALKKVFQPIHEAIKLINNHVQ-OH)	32 µM (≈ 87.2 µg/mL)	32 µM (≈ 87.2 µg/mL)	16 µM (≈ 43.6 µg/mL)	8 µM (≈ 21.8 µg/mL)	8 µM (≈ 21.8 µg/mL)	32 µM (≈ 87.2 µg/mL)	32 µM	10 µM	16 µM (≈ 43.6 µg/mL)	8 µM (≈ 21.8 µg/mL)	8 µM (≈ 21.8 µg/mL)	8 µM (≈ 21.8 µg/mL)	8 µM (≈ 21.8 µg/mL)	32 µM (≈ 87.2 µg/mL)	16 µM (≈ 43.6 µg/mL)	32 µM (≈ 87.2 µg/mL)	16 µM (≈ 43.6 µg/mL)	8 µM (≈ 21.8 µg/mL)	8 µM (≈ 21.8 µg/mL)	400 µM	haemolysis at 400 μM [22]; 400: 0.5%; MIC, MRSA 3089 [23]: 32 µM (≈ 87.2 µg/mL)
LL-37	–	–	–	–	–	–	–	–	–	–	–	–	–	–	–	–	–	–	–	–	LPS neutralization (control peptide) [24]: high LPS neutralization
B1	–	–	–	–	–	–	–	–	–	–	–	–	–	–	–	–	–	–	–	–	Kd [25]: 1500 nM
B2	–	–	–	–	–	–	–	–	–	–	–	–	–	–	–	–	–	–	–	–	Kd [25]: 6900 nM
B3	–	–	–	–	–	–	–	–	–	–	–	–	–	–	–	–	–	–	–	–	Kd [25]: 800 nM
